The test has as its target T1, human GPR119 (Homo sapiens, UniProt Q8TDV5).
T1 construct: expressed in transfected cells; host or cells: HEK293 (transient transfection, Lipofectamine 2000)
T1 sequence (Q8TDV5 1-335): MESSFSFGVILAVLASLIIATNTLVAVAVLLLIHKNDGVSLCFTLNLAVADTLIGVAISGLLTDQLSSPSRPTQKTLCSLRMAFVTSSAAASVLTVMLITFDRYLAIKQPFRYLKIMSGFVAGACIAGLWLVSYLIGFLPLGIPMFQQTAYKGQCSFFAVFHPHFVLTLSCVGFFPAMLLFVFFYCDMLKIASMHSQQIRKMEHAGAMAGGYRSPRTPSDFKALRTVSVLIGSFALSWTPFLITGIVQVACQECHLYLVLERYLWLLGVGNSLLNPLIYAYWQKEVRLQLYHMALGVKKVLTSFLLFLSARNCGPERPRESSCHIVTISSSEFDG
Nature of the test: In vitro cyclic AMP assay (Cisbio HTRF) in HEK293 cells transfected with human GPR119. Format: cell-based. The note with it: cAMP, Table I; for activation at 10 µM: 1 h, % Induction @ 10 μM; for EC50: Emax varies between 65 to 80%. As for the experimental part: A. In Vitro Cyclic AMP Assay:
cAMP measurements were done using a Cisbio dynamic 2 HTRF kit (Cisbio, Bedford, Mass.) according to the manufacturer's protocol. Briefly, HEK293 cells (0.2×10^6/well) were plated in a 24 well plate and incubated overnight at 37° C. Cells were transfected with either empty vector DNA or human GPR119 expression plasmid DNA using Lipofectamine 2000 (Invitrogen). After 24 h, transfected cells were harvested, counted and plated at 1000 cells/5 ul in a black 384 welled small volume plate. Cells were treated with desired concentrations of compounds and incubated for 60 min at room temperature. Lysis buffer containing cAMP-d2 and cryptate conjugate were added and incubated for 1 h. HRTF ratio was measured on a microplate reader (BMG Labtech., Germany) at an excitation wavelength of 337 nm and emission wavelengths of 665 and 620 nm with an integration time of 400 μsec. Data were analyzed using Graphpad Prism (Graphpad software; San Diego Calif.) for EC50 determination.
The results are as given in Table I as % Induction@ 10 μM, Table II as % Induction@ 10 μM and EC 50 in nM

The structures appear in SMILES notation.

On to `CCc1cnc(N2CCC(c3nc4cc(-c5ccc(S(C)(=O)=O)cc5F)ccc4[nH]3)CC2)nc1` [EXAMPLE-1, 2-[1-(5-Ethylpyrimidin-2-yl)piperidin-4-yl]-5-[2-fluoro-4-(methylsulfonyl)phenyl]-1H-benzo[d]imidazole], for which the activation at 10 µM worked out at 55.4%. Take `CC(C)(C)OC(=O)N1CCC(c2nc3cc(-c4ccc(S(C)(=O)=O)cc4F)ccc3[nH]2)CC1` [EXAMPLE-2, Tert-butyl 4-{5-[2-fluoro-4-(methylsulfonyl)phenyl]-1H-benzo[d]imidazol-2-yl}piperidine-1-carboxylate]: the activation at 10 µM turned out to be 35.8%. The same measure, in the same setting: for `CCc1cnc(N2CCC(c3nc4cc(-c5ccc(S(C)(=O)=O)cc5F)ccc4o3)CC2)nc1` [EXAMPLE-3, 2-[1-(5-ethylpyrimidin-2-yl)piperidin-4-yl]-5-[2-fluoro-4-(methylsulfonyl)phenyl]benzo[d]oxazole] the value was 35.4%. Regarding `CC(C)(C)OC(=O)N1CCC(c2nc3cc(-c4ccc(S(C)(=O)=O)cc4F)ccc3o2)CC1` [EXAMPLE-4, tert-butyl 4-{5-[2-fluoro-4-(methylsulfonyl)phenyl]benzo[d]oxazol-2-yl}piperidine-1-carboxylate], the activation at 10 µM amounted to 74.2% and the EC50 is 0.05 to 0.1 µM.

With `Cn1c(C2CCN(C(=O)OC(C)(C)C)CC2)nc2cc(-c3ccc(S(C)(=O)=O)cc3F)ccc21` [EXAMPLE-5, Tert-butyl 4-{5-[2-fluoro-4-(methylsulfonyl)phenyl]-1-methyl-1H-benzo[d]imidazol-2-yl}piperidine-1-carboxylate], the activation at 10 µM is 41%. Molecule `CC(C)(C)OC(=O)N1CCC(c2nc3ccc(-c4ccc(S(C)(=O)=O)cc4F)cc3o2)CC1` [EXAMPLE-6, Tert-butyl 4-{6-[2-fluoro-4-(methylsulfonyl)phenyl]benzo[d]oxazol-2-yl}piperidine-1-carboxylate] gave an activation at 10 µM of 73.2% and a concentration giving a half-maximal response (EC50) of 0.025 to 0.05 µM. In the same order, the values of `CC(C)OC(=O)N1CCC(c2nc3cc(-c4ccc(S(C)(=O)=O)cc4F)ccc3o2)CC1` [EXAMPLE-7, Isopropyl 4-{5-[2-fluoro-4-(methylsulfonyl)phenyl]benzo[d]oxazol-2-yl}piperidine-1-carboxylate] are 62.6% and 0.05 to 0.1 µM. For `CC(C)(C)OC(=O)N1CCC(c2nc3cc(-c4ccc(S(C)(=O)=O)cc4F)cc(F)c3o2)CC1` [EXAMPLE-8, Tert-butyl 4-{7-fluoro-5-[2-fluoro-4-(methylsulfonyl)phenyl]benzo[d]oxazol-2-yl}piperidine-1-carboxylate], the activation at 10 µM is 66.7% and the EC50 was 0.025 to 0.05 µM. In turn, `CC(C)(C)OC(=O)N1CCC(c2nc3cc(-c4ccc(C#N)cc4)ccc3o2)CC1` [EXAMPLE-9, Tert-butyl 4-[5-(4-cyanophenyl)benzo[d]oxazol-2-yl]piperidine-1-carboxylate] registered an activation at 10 µM of 46.8%.

In turn, `CC(C)(C)OC(=O)N1CCC(c2nc3cc(-c4ccc(S(C)(=O)=O)c(F)c4)ccc3o2)CC1` [EXAMPLE-10, Tert-butyl 4-{5-[3-fluoro-4-(methylsulfonyl)phenyl]benzo[d]oxazol-2-yl}piperidine-1-carboxylate] registered an activation at 10 µM of 59.2% and an EC50 of 0.5 to 1 µM. In the case of `CC(C)(C)OC(=O)N1CCC(c2nc3cc(-c4ccc(-n5cnnn5)cc4)ccc3o2)CC1` [EXAMPLE-11, Tert-butyl 4-{5-[4-(1H-tetrazol-1-yl)phenyl]benzo[d]oxazol-2-yl}piperidine-1-carboxylate], the activation at 10 µM was found to be 70.1%.

The molecule `CC(C)(C)OC(=O)N1CCC(c2nc3cc(-c4ccc(C(F)(F)F)cc4)ccc3o2)CC1` [EXAMPLE-13, Tert-butyl 4-{5-[4-(trifluoromethyl)phenyl]benzo[d]oxazol-2-yl}piperidine-1-carboxylate] showed an activation at 10 µM of 68.2% and an EC50 of 0.1 to 0.5 µM. Regarding `CC(C)OC(=O)N1CCC(c2nc3cc(-c4ccc(-n5cnnn5)cc4F)ccc3o2)CC1` [EXAMPLE-14, Isopropyl 4-{5-[2-fluoro-4-(1H-tetrazol-1-yl)phenyl]benzo[d]oxazol-2-yl}piperidine-1-carboxylate], the activation at 10 µM came to 68.6% and the EC50 lay in the range of 0.025 to 0.05 µM. `CC(C)(C)OC(=O)N1CCC(c2nc3cc(-c4ccc(-n5cnnn5)c(F)c4)ccc3o2)CC1` [EXAMPLE-15, Tert-butyl 4-{5-[3-fluoro-4-(1H-tetrazol-1-yl)phenyl]benzo[d]oxazol-2-yl}piperidine-1-carboxylate]: the activation at 10 µM was 77.7% and the EC50 was in the range of 0.1 to 0.5 µM. In turn, `CCc1cnc(N2CCC(c3nc4cc(-c5ccc(-n6cnnn6)cc5F)ccc4o3)CC2)nc1` [EXAMPLE-16, 2-[1-(5-ethylpyrimidin-2-yl)piperidin-4-yl]-5-[2-fluoro-4-(1H-tetrazol-1-yl)phenyl]benzo[d]oxazole] showed an activation at 10 µM of 43.7%. Same read-out and setting: as for `CC(C)(C)OC(=O)N1CCC(c2nc3cc(-c4ccc(C#N)c(F)c4)ccc3o2)CC1` [EXAMPLE-17, Tert-butyl 4-[5-(4-cyano-3-fluorophenyl)benzo[d]oxazol-2-yl]piperidine-1-carboxylate], the figure is 41.5%; as for `CC(C)OC(=O)N1CCC(c2nc3cc(-c4ccc(-n5cnnn5)c(F)c4)ccc3o2)CC1` [EXAMPLE-18, Isopropyl 4-{5-[3-fluoro-4-(1H-tetrazol-1-yl)phenyl]benzo[d]oxazol-2-yl}piperidine-1-carboxylate], 36.4%.

Regarding `CC(C)(C)OC(=O)N1CCC(c2nc3cc(-c4ccc(-c5nnn[nH]5)c(F)c4)ccc3o2)CC1` [EXAMPLE-19, Tert-butyl 4-{5-[3-fluoro-4-(1H-tetrazol-5-yl)phenyl]benzo[d]oxazol-2-yl}piperidine-1-carboxylate], the activation at 10 µM is 37.2%. On to `CC(C)(C)OC(=O)N1CCC(c2nc3cc(-c4ccc(C(N)=O)c(Cl)c4)ccc3o2)CC1` [EXAMPLE-20, Tert-butyl 4-[5-(4-carbamoyl-3-chlorophenyl)benzo[d]oxazol-2-yl]piperidine-1-carboxylate], for which the activation at 10 µM was determined as 73.9% and the EC50 was in the range of 0.025 to 0.05 µM. Molecule `CC(C)(C)OC(=O)N1CCC(c2nc3cc(-c4ccc(C(N)=O)c(F)c4)ccc3o2)CC1` [EXAMPLE-21, Tert-butyl 4-[5-(4-carbamoyl-3-fluorophenyl)benzo[d]oxazol-2-yl]piperidine-1-carboxylate] returned an activation at 10 µM of 59% and an EC50 of 0.05 to 0.1 µM. The molecule `CC(C)Oc1ccc(-c2ccc3oc(C4CCN(C(=O)OC(C)(C)C)CC4)nc3c2)cc1F` [EXAMPLE-22, Tert-butyl 4-[5-(3-fluoro-4-isopropoxyphenyl)benzo[d]oxazol-2-yl]piperidine-1-carboxylate] gave an activation at 10 µM of 64.5%. Take `O=C(OC1CCC1)N1CCC(c2nc3cc(-c4ccc(-n5cnnn5)cc4F)ccc3o2)CC1` [EXAMPLE-23, Cyclobutyl 4-{5-[2-fluoro-4-(1H-tetrazol-1-yl)phenyl]benzo[d]oxazol-2-yl}piperidine-1-carboxylate]: the activation at 10 µM turned out to be 69.6% and the EC50 was 0.025 to 0.05 µM.

The molecule `CCC(C)OC(=O)N1CCC(c2nc3cc(-c4ccc(-n5cnnn5)cc4F)ccc3o2)CC1` (centres unmarked) [EXAMPLE-24, Sec-butyl 4-{5-[2-fluoro-4-(1H-tetrazol-1-yl)phenyl]benzo[d]oxazol-2-yl}piperidine-1-carboxylate] returned an activation at 10 µM of 67.5% and an EC50 of at most 0.025 µM.
